≈ marks a conversion by molar mass, not a printed value.
Experiments:
rhinovirus type 2 (RV-2) = assay: Tissue culture antiviral testing, RV-2 (cytopathic effect, HeLa cells); type: cell-based; conditions: for EC50: Enterovirus, HeLa cells, NA = not active at the standard test conditions, read-out: Lowest concentration of the compound necessary to cause a 50 percent reduction in cytopathic effect
rhinovirus type 8 (RV-8) = assay: Tissue culture antiviral testing, RV-8 (cytopathic effect, HeLa cells); type: cell-based; conditions: for EC50: Enterovirus, HeLa cells, read-out: Lowest concentration of the compound necessary to cause a 50 percent reduction in cytopathic effect
[1] = tested on: rhinovirus type 1A (RV-1A); assay: Tissue culture antiviral testing, RV-1A (cytopathic effect, HeLa cells); type: cell-based; conditions: for EC50: Enterovirus, HeLa cells, NA = not active at the standard test conditions, read-out: Lowest concentration of the compound necessary to cause a 50 percent reduction in cytopathic effect
rhinovirus type 5 (RV-5) = assay: Tissue culture antiviral testing, RV-5 (cytopathic effect, HeLa cells); type: cell-based; conditions: for EC50: Enterovirus, HeLa cells, read-out: Lowest concentration of the compound necessary to cause a 50 percent reduction in cytopathic effect
[2] = tested on: Coxsackie A21 virus (Cox A21); assay: Tissue culture antiviral testing, Cox A21 (cytopathic effect, HeLa cells); type: cell-based; conditions: for EC50: HeLa cells, NA = not active at the standard test conditions, read-out: Lowest concentration of the compound necessary to cause a 50 percent reduction in cytopathic effect
Coxsackie A21 virus = assay: Continuous Oral Feeding test in mice challenged with Coxsackie A21; type: in vivo; conditions: for X^2 (Continuous Oral Feeding, chi-square of deaths): 0.06 % in diet, 240 h, 0.06 % strength
[3] = tested on: rhinovirus type 64 (RV-64); assay: Tissue culture antiviral testing, RV-64 (cytopathic effect, HeLa cells); type: cell-based; conditions: for EC50: Enterovirus, HeLa cells, NA = not active at the standard test conditions, read-out: Lowest concentration of the compound necessary to cause a 50 percent reduction in cytopathic effect
[4] = Cytotoxicity in tissue culture (HeLa monolayers); type: cell-based; conditions: human; HeLa cells; observed at 48 and 72 hours post-treatment; read-out: Cytotoxicity (concentration of the compound found to be toxic to the cell)
Cox A21 = assay: Single Oral Dose test in mice challenged with Cox A21; type: in vivo, Swiss male mice; conditions: po, 600 mg/kg, 3 h

Compound | EC50 (rhinovirus type 2 (RV-2)) [µg/mL] | MCC [4] [µg/mL] | EC50 [2] [µg/mL] | EC50 [1] [µg/mL] | EC50 (rhinovirus type 8 (RV-8)) [µg/mL] | EC50 (rhinovirus type 5 (RV-5)) [µg/mL] | EC50 [3] [µg/mL] | further results
N#Cc1cc(Oc2ccc(Cl)c(Cl)c2)ccc1[N+](=O)[O-] [5-(3,4-dichlorophenoxy)-2-nitrobenzonitrile, reference compound] | – | – | – | – | – | – | – | concentration required to produce a 50% reduction in cytopathic effect, compared with 2-(3,4-dichlorophenoxy)-5-nitrobenzonitrile (rhinovirus type 2 (RV-2); in words): higher concentrations; antiviral activity at the test concentrations employed (rhinovirus type 8 (RV-8); in words): not active; concentration required to produce a 50% reduction in cytopathic effect, compared with 2-(3,4-dichlorophenoxy)-5-nitrobenzonitrile ([1]; in words): higher concentrations; antiviral activity at the test concentrations employed (rhinovirus type 5 (RV-5); in words): not active; concentration required to produce a 50% reduction in cytopathic effect, compared with 2-(3,4-dichlorophenoxy)-5-nitrobenzonitrile ([2]; in words): higher concentrations; antiviral activity in the "Continuous Oral Feeding" test (Coxsackie A21 virus; in words, 95% confidence level): failed to exhibit antiviral activity; antiviral activity at the test concentrations employed ([3]; in words): not active
N#Cc1cc([N+](=O)[O-])ccc1Oc1ccc(Oc2ccccc2)cc1 [Example 5, 2-(4-Phenoxyphenoxy)-5-nitrobenzonitrile] | 50 (≈ 150 µM) | > 100 | < 6.25 | – | – | – | – | X^2 (Continuous Oral Feeding, chi-square of deaths) (Coxsackie A21 virus): 0.26; X^2 (Single Oral Dose, chi-square of deaths vs virus control) (Cox A21): 0.719
CN(C)S(=O)(=O)c1ccc(Oc2ccc([N+](=O)[O-])cc2C#N)cc1 [Example 9, N,N-Dimethyl-4-(2-cyano-4-nitrophenoxy)benzenesulfonamide] | – | > 100 | < 6.25 | – | – | – | – | X^2 (Continuous Oral Feeding, chi-square of deaths) (Coxsackie A21 virus): 9.03
CCN(CC)S(=O)(=O)c1ccc(Oc2ccc([N+](=O)[O-])cc2C#N)cc1 [Example 10, N,N-Diethyl-4-(2-cyano-4-nitrophenoxy)benzenesulfonamide] | – | > 100 | < 6.25 | ~50 (≈ 133 µM) | – | – | – | X^2 (Continuous Oral Feeding, chi-square of deaths) (Coxsackie A21 virus): 2.84
N#Cc1cc([N+](=O)[O-])ccc1Oc1ccc(C(=O)c2ccccc2)cc1 [Example 11, 2-(4-Benzoylphenoxy)-5-nitrobenzonitrile] | ~100 (≈ 290 µM) | > 100 | 12.5 (≈ 36.3 µM) | – | – | – | – | X^2 (Single Oral Dose, chi-square of deaths vs virus control) (Cox A21): 0.64
COc1cccc(Oc2ccc([N+](=O)[O-])cc2C#N)c1 [Example 13, 2-(3-Methoxyphenoxy)-5-nitrobenzonitrile] | ≤ 3.12 | > 50 | < 3.12 | 6.25 (≈ 23.1 µM) | 3.12 (≈ 11.6 µM) | 6.25 (≈ 23.1 µM) | 12.5 (≈ 46.3 µM) | –
N#Cc1cc([N+](=O)[O-])ccc1Oc1ccc(C(F)(F)F)cc1 [Example 14, 2-((4-Trifluoromethyl)phenoxy)-5-nitrobenzonitrile] | 0.312 (≈ 1.01 µM) | ≥ 50 | 0.625 (≈ 2.03 µM) | 3.12 (≈ 10.1 µM) | 0.312 (≈ 1.01 µM) | 2.5 (≈ 8.11 µM) | 0.625 (≈ 2.03 µM) | –
CC(=O)c1ccc(Oc2ccc([N+](=O)[O-])cc2C#N)cc1 [Example 15, 2-(4-Acetylphenoxy)-5-nitrobenzonitrile] | 3.12 (≈ 11.1 µM) | > 50 | < 3.12 | 6.25 (≈ 22.1 µM) | 3.12 (≈ 11.1 µM) | 6.25 (≈ 22.1 µM) | 6.25 (≈ 22.1 µM) | –
Cc1cc(Cl)ccc1Oc1ccc([N+](=O)[O-])cc1C#N [Example 16, 2-(4-Chloro-2-methylphenoxy)-5-nitrobenzonitrile] | 3.12 (≈ 10.8 µM) | > 50 | 12.5 (≈ 43.3 µM) | 12.5 (≈ 43.3 µM) | 3.12 (≈ 10.8 µM) | 6.25 (≈ 21.6 µM) | – | –
N#Cc1cc([N+](=O)[O-])ccc1Oc1cc(Cl)c(Cl)c(Cl)c1 [Example 17, 2-(3,4,5-Trichlorophenoxy)-5-nitrobenzonitrile] | 1.25 (≈ 3.64 µM) | 10 | 1.25 (≈ 3.64 µM) | 2.5 (≈ 7.28 µM) | – | – | – | –
N#Cc1cc([N+](=O)[O-])ccc1Oc1c(F)c(F)cc(F)c1F [Example 18, 2-(2,3,5,6-Tetrafluorophenoxy)-5-nitrobenzonitrile] | < 3.12 | 12.5 | 3.12 (≈ 10 µM) | 3.12 (≈ 10 µM) | 1.25 (≈ 4 µM) | 1.25 (≈ 4 µM) | 0.312 (≈ 1 µM) | –
N#Cc1cc([N+](=O)[O-])ccc1Oc1c(F)c(F)c(F)c(F)c1F [Example 19, 2-(2,3,4,5,6-Pentafluorophenoxy)-5-nitrobenzonitrile] | ≤ 3.12 | 12.5 | 6.25 (≈ 18.9 µM) | 6.25 (≈ 18.9 µM) | 1.25 (≈ 3.79 µM) | 1.25 (≈ 3.79 µM) | 0.312 (≈ 0.946 µM) | –
N#Cc1cc([N+](=O)[O-])ccc1Sc1ccc(Cl)c(Cl)c1 [Example 20, 2-((3,4-Dichlorophenyl)thio)-5-nitrobenzonitrile] | 2.5 (≈ 7.69 µM) | 10 | ~2.5 (≈ 7.69 µM) | – | – | – | – | –
N#Cc1cc([N+](=O)[O-])ccc1Oc1ccc(F)cc1 [Example 21, 2-(4-Fluorophenoxy)-5-nitrobenzonitrile] | < 0.625 | 10 | 0.625 (≈ 2.42 µM) | 0.625 (≈ 2.42 µM) | 0.625 (≈ 2.42 µM) | 1.25 (≈ 4.84 µM) | 0.625 (≈ 2.42 µM) | X^2 (Continuous Oral Feeding, chi-square of deaths) (Coxsackie A21 virus): 10.513
N#Cc1cc([N+](=O)[O-])ccc1Oc1cccc(Cl)c1Cl [Example 22, 2-(2,3-Dichlorophenoxy)-5-nitrobenzonitrile] | < 3.12 | > 50 | < 3.12 | < 3.12 | – | – | < 3.12 | –
N#Cc1cc([N+](=O)[O-])ccc1Oc1cc(Cl)ccc1Cl [Example 23, 2-(2,5-Dichlorophenoxy)-5-nitrobenzonitrile] | < 3.12 | > 50 | 6.25 (≈ 20.2 µM) | 3.12 (≈ 10.1 µM) | < 6.25 | ≤ 6.25 | 3.12 (≈ 10.1 µM) | –
N#Cc1cc([N+](=O)[O-])ccc1Oc1c(Cl)cccc1Cl [Example 24, 2-(2,6-Dichlorophenoxy)-5-nitrobenzonitrile] | ≤ 3.12 | > 50 | 12.5 (≈ 40.4 µM) | 3.12 (≈ 10.1 µM) | ≤ 3.12 | 3.12 (≈ 10.1 µM) | 3.12 (≈ 10.1 µM) | –
N#Cc1cc([N+](=O)[O-])ccc1Oc1cc(Cl)cc(Cl)c1 [Example 25, 2-(3,5-Dichlorophenoxy)-5-nitrobenzonitrile] | 3.12 (≈ 10.1 µM) | > 50 | – | 6.25 (≈ 20.2 µM) | 3.12 (≈ 10.1 µM) | 6.25 (≈ 20.2 µM) | 25 (≈ 80.9 µM) | –
N#Cc1cc([N+](=O)[O-])ccc1Oc1ccccc1C(F)(F)F [Example 26, 2-((2-Trifluoromethyl)phenoxy)-5-nitrobenzonitrile] | 1.25 (≈ 4.06 µM) | ≥ 20 | 10 (≈ 32.4 µM) | – | – | – | – | –
N#Cc1cc([N+](=O)[O-])ccc1Oc1cccc(C(F)(F)F)c1 [Example 27, 2-((3-Trifluoromethyl)phenoxy)-5-nitrobenzonitrile] | 0.625 (≈ 2.03 µM) | 12.5 | 1.25 (≈ 4.06 µM) | 2.5 (≈ 8.11 µM) | 1.25 (≈ 4.06 µM) | 0.625 (≈ 2.03 µM) | 0.625 (≈ 2.03 µM) | –
N#Cc1cc([N+](=O)[O-])ccc1Oc1cc(C(F)(F)F)cc(C(F)(F)F)c1 [Example 28, 2-(3,5-bis(Trifluoromethyl)phenoxy)-5-nitrobenzonitrile] | 2.5 (≈ 6.65 µM) | ≥ 20 | 10 (≈ 26.6 µM) | – | – | – | – | –
N#Cc1cc([N+](=O)[O-])ccc1Oc1ccc(Cl)c(Cl)c1Cl [Example 29, 2-(2,3,4-Trichlorophenoxy)-5-nitrobenzonitrile] | 1.25 (≈ 3.64 µM) | > 20 | ~5 (≈ 14.6 µM) | ~10 (≈ 29.1 µM) | – | – | – | –
N#Cc1cc([N+](=O)[O-])ccc1Oc1cc(Cl)cc(Cl)c1Cl [Example 30, 2-(2,3,5-Trichlorophenoxy)-5-nitrobenzonitrile] | 2.5 (≈ 7.28 µM) | > 20 | – | 2.5 (≈ 7.28 µM) | – | – | – | –
N#Cc1cc([N+](=O)[O-])ccc1Oc1c(Cl)ccc(Cl)c1Cl [Example 31, 2-(2,3,6-Trichlorophenoxy)-5-nitrobenzonitrile] | 1.25 (≈ 3.64 µM) | > 20 | 5 (≈ 14.6 µM) | 2.5 (≈ 7.28 µM) | < 3.12 | 3.12 (≈ 9.1 µM) | 3.12 (≈ 9.1 µM) | –
